Test results: ChEMBL document CHEMBL1833933, “Relationship between the structures of flavonoids and their NF-κB-dependent transcriptional activities” (Bioorg Med Chem Lett, 2011)
Calls of active or inactive are those of the source. The calls are words filed in the database; no cut-off is given here.

test system: HCT-116; test: Inhibition of NF-kappaB activation expressed in HCT116 cells assessed as inhibition of TNF-alpha-induced transcriptional activation at 10 uM after 12 hrs by luciferase reporter gene assay relative to control; assay type: cell-based; conditions: values are per cent of control

| SMILES | residual activity [%] |
| --- | --- |
| COc1cccc2oc(-c3ccccc3)cc(=O)c12 | 63.9 |
| Cc1c(-c2ccccc2)oc2c(C(=O)O)cccc2c1=O | 143 |
| COc1ccc2c(=O)c(-c3ccccc3)coc2c1 | 132 |
| O=C1C[C@@H](c2ccc(O)cc2)Oc2cc(O)cc(O)c21 | 135 |
| O=c1cc(-c2ccccc2)oc2c1ccc1ccccc12 | 91.4 |
| COc1cccc2c1C(=O)CC(c1ccccc1)O2 (stereo not drawn) | 108 |
| COc1ccccc1-c1cc(=O)c2ccc3ccccc3c2o1 | 65.1 |
| COc1ccc(/C=C/C(=O)c2ccc(OC)cc2O)cc1 | 83.1 |
| COc1cc(/C=C/C(=O)c2ccccc2OC)cc(OC)c1 | 61.1 |
| COc1cc(-c2cc(=O)c3ccccc3o2)ccc1O | 105 |
| COc1cc(-c2oc3cc(O)cc(O)c3c(=O)c2O[C@@H]2O[C@H](CO)[C@@H](O)[C@H](O)[C@H]2O)ccc1O | 115 |
| O=c1cc(-c2ccccc2)oc2ccc3ccccc3c12 | 150 |
| COc1cc(OC)c2c(c1)OC(c1ccccc1)CC2=O (stereo not drawn) | 126 |
| O=c1c(O)c(-c2ccc(O)c(O)c2)oc2c(O[C@@H]3O[C@H](CO)[C@@H](O)[C@H](O)[C@H]3O)c(O)cc(O)c12 | 99.1 |
| COc1cccc2oc(-c3ccc(O)cc3)cc(=O)c12 | 87.7 |
| COc1cccc(/C=C/C(=O)c2cc(OC)cc(OC)c2)c1 | 77.4 |
| O=c1cc(-c2ccccc2)oc2cccc(O)c12 | 116 |
| COc1cc(O)c2c(=O)c(-c3ccc(O)cc3)coc2c1 | 105 |
| COc1ccc(-c2coc3cc(OC)cc(OC)c3c2=O)cc1 | 123 |
| O=c1cc(-c2cccc(O)c2)oc2cccc(O)c12 | 126 |
| O=c1cc(-c2cccc(O)c2O)oc2ccccc12 | 109 |
| COc1ccc2c(c1)OC(c1cc(OC)c(OC)c(OC)c1)CC2=O (stereo not drawn) | 99.8 |
| COc1cccc(-c2cc(=O)c3ccccc3o2)c1OC | 100 |
| COc1cc(OC)c2c(=O)cc(-c3ccc(OC)c(OC)c3)oc2c1 | 124 |
| O=c1cc(-c2ccccc2)oc2ccccc12 | 113 |
| COc1ccc(-c2cc(=O)c3c(OC)cc(OC)cc3o2)cc1 | 89.9 |

test system: HCT-116; test: Inhibition of TNF-alpha-induced NF-kappaB activation expressed in HCT116 cells assessed as reduction of IkappaB phosphorylation at Ser32 at 20 uM treated 30 mins before TNFalpha challenge by Western blot analysis; assay type: cell-based; conditions: not given

| SMILES | inhibition |
| --- | --- |
| COc1cc(/C=C/C(=O)c2cc(OC)cc(OC)c2)cc(OC)c1 | Active |

test system: HCT-116; test: Inhibition of TNF-alpha-induced NF-kappaB activation expressed in HCT116 cells assessed as reduction of RelA phosphorylation at Ser536 at 20 uM treated 30 mins before TNFalpha challenge by immunofluorescence microscopic analysis; assay type: cell-based; conditions: not given

| SMILES | inhibition |
| --- | --- |
| COc1cc(/C=C/C(=O)c2cc(OC)cc(OC)c2)cc(OC)c1 | Active |
